Columns and labels:
Type in all cases: in vivo, human
[1] = tested on: patients with fasting triglyceride levels ≥500 mg/dL; experiment: 12-week placebo-controlled double-blind clinical study: fasting lipid parameters
Procedure: A multi-center, placebo-controlled randomized, double-blind, 12-week study with an open-label extension was performed to evaluate the efficacy and safety of AMR101 in patients with fasting triglyceride levels ≥500 mg/dL. The primary objective of the study was to determine the efficacy of AMR101 2 g daily and 4 g daily, compared to placebo, in lowering fasting TG levels in patients with fasting TG levels ≥500 mg/dL and ≤1500 mg/dL (≥5.65 mmol/L and ≤16.94 mmol/L). The population for this study was men and women (women of childbearing potential needed to be on contraception or practice abstinence) >18 years of age with a body mass index ≤45 kg/m^2 who were not on lipid-altering therapy or are currently on lipid-altering therapy. Patients currently on statin therapy (with or without ezetimibe) were evaluated by the investigator as to whether this therapy could be safely discontinued at screening, or if it should be continued. If statin therapy (with or without ezetimibe) was to be continued, dose(s) must be stable for ≥4 weeks prior to randomization. Patients taking non-statin, lipid-altering medications (niacin >200 mg/day, fibrates, fish oil, other products containing omega-3 fatty acids, or other herbal products or dietary supplements with potential lipid-altering effects), either alone or in combination with statin therapy (with or without ezetimibe), must have been able to safely discontinue non-statin, lipid-altering therapy at screening. Approximately 240 patients were sought to be randomized at approximately 50 centers in North America, South America, Central America, Europe, India, and South Africa. The study was be a 58- to 60-week, Phase 3, multi-center study consisting of 3 study periods: (1) A 6- to 8-week screening period that included a diet and lifestyle stabilization and washout period and a TG qualifying period; (2) A 12-week, double-blind, randomized, placebo-controlled treatment period; and (3) A 40-week, open-label, extension period. After confirmation of qualifying fasting TG values, eligible patients entered a 12-week, randomized, double-blind treatment period. At Visit 4 (Week 0), patients were randomly assigned to 1 of the following treatment groups: • AMR101 2 g daily, • AMR101 4 g daily, or • Placebo. Eligible patients were randomly assigned at Visit 4 (Week 0) to receive orally AMR101 2 g daily, AMR101 4 g daily, or placebo for the 12-week double-blind treatment period. AMR101 was provided in 1 g liquid-filled, oblong, gelatin capsules. The matching placebo capsule was filled with light liquid paraffin and contained 0 g of AMR101. During the double-blind treatment period, patients took 2 capsules (AMR101 or matching placebo) in the morning and 2 in the evening for a total of 4 capsules per day. Patients in the AMR101 2 g/day treatment group received 1 AMR101 1 g capsule and 1 matching placebo capsule in the morning and in the evening. Patients in the AMR101 4 g/day treatment group received 2 AMR101 1 g capsules in the morning and evening. The primary efficacy variable for the double-blind treatment period was percent change in TG from baseline to Week 12 endpoint. […]

[2] = tested on: patients with fasting triglyceride levels ≥500 mg/dL; experiment: Lipoprotein particle size by NMR spectroscopy in the clinical study; details: for VLDL particle size, placebo-adjusted median percent change from baseline: Hodges-Lehmann median; for HDL particle size, median change from baseline / LDL particle size, median change from baseline / VLDL particle size, median change from baseline: baseline to study end; for HDL particle size, end-of-treatment value (median) / LDL particle size, end-of-treatment value (median) / VLDL particle size, end-of-treatment value (median): study end
Procedure: (§1) Lipoprotein particle concentrations and sizes were measured with nuclear magnetic resonance spectroscopy in the above described clinical trial. Lipoprotein particle size and concentration parameters were obtained from fasting blood samples. Lipoprotein particle size and concentrations are measured by nuclear magnetic resonance (NMR) spectroscopy at LipoScience, Inc. (Raleigh, N.C.) using the LipoProfile-3 algorithm. VLDL, LDL, and HDL subclasses of different size were quantified from the amplitudes of their spectroscopically-distinct lipid methyl group NMR signals.
(§2) Subjects with missing baseline or Week 12 measurements, due to either missing laboratory samples or un-reportable values, were excluded from this analysis. The median difference of each lipoprotein particle variable (percent change from baseline) between each AMR101 treatment group and the placebo group was evaluated with a nonparametric test using the Hodges-Lehmann medians of the differences between treatment groups and the Wilcoxon rank-sum test (significance level 0.05). All statistical analyses were carried out using SAS 9.2 software.

[3] = tested on: patients with fasting triglyceride levels ≥500 mg/dL; experiment: Lipoprotein particle concentration by NMR spectroscopy in the clinical study; details: 2 g/day vs placebo
Procedure: as §1
Concentrations of the following subclasses of lipoproteins were analyzed in this study: small LDL (18.0-20.5 nm), large LDL (20.5-23.0 nm), intermediate-density lipoprotein (IDL; 23.0-29.0 nm), large high-density lipoprotein (HDL; 9.4-14.0 nm), medium HDL (8.2-9.4 nm), small HDL (7.3-8.2 nm), large very-low-density lipoprotein (VLDL; >60 nm), medium VLDL (42-60 nm), and small VLDL (29-42 nm).
as §2

Compound: CC/C=C\C/C=C\C/C=C\C/C=C\C/C=C\CCCC(=O)OCC [AMR101, ethyl eicosapentaenoate]
- Apo B median percent change, AMR101 2 g/day vs. Placebo ([1]; 2 g/day vs placebo, 12 weeks): −2.6%
- HDL-C median percent change, AMR101 2 g/day vs. Placebo ([1]; 2 g/day vs placebo, 12 weeks): 1.5%
- LDL-C median percent change, AMR101 2 g/day vs. Placebo ([1]; 2 g/day vs placebo, 12 weeks): 5.2%
- Lp-PLA2 median percent change, AMR101 2 g/day vs. Placebo ([1]; 2 g/day vs placebo, 12 weeks): −5.1%
- Non-HDL-C median percent change, AMR101 2 g/day vs. Placebo ([1]; 2 g/day vs placebo, 12 weeks): −8.1%
- TC median percent change, AMR101 2 g/day vs. Placebo ([1]; 2 g/day vs placebo, 12 weeks): −6.8%
- TG median percent change, AMR101 2 g/day vs. Placebo ([1]; 2 g/day vs placebo, 12 weeks): −19.7%
- VLDL-C median percent change, AMR101 2 g/day vs. Placebo ([1]; 2 g/day vs placebo, 12 weeks): −15.3%
- VLDL-TG median percent change, AMR101 2 g/day vs. Placebo ([1]; 2 g/day vs placebo, 12 weeks): −17.3%
- Apo B median percent change from baseline ([1]; 2 g/day, 12 weeks): 2.1%
- HDL-C median percent change from baseline ([1]; 2 g/day, 12 weeks): 0.0%
- LDL-C median percent change from baseline ([1]; 2 g/day, 12 weeks): −2.5%
- Lp-PLA2 median percent change from baseline ([1]; 2 g/day, 12 weeks): −5.1%
- Non-HDL-C median percent change from baseline ([1]; 2 g/day, 12 weeks): 0.0%
- TC median percent change from baseline ([1]; 2 g/day, 12 weeks): 0.7%
- TG median percent change from baseline ([1]; 2 g/day, 12 weeks): −7.0%
- VLDL-C median percent change from baseline ([1]; 2 g/day, 12 weeks): 0.0%
- VLDL-TG median percent change from baseline ([1]; 2 g/day, 12 weeks): −6.4%
- Apo B median percent change, AMR101 4 g/day vs. Placebo ([1]; 4 g/day vs placebo, 12 weeks): −8.5%
- HDL-C median percent change, AMR101 4 g/day vs. Placebo ([1]; 4 g/day vs placebo, 12 weeks): −3.6%
- LDL-C median percent change, AMR101 4 g/day vs. Placebo ([1]; 4 g/day vs placebo, 12 weeks): −2.3%
- Lp-PLA2 median percent change, AMR101 4 g/day vs. Placebo ([1]; 4 g/day vs placebo, 12 weeks): −13.6%
- Non-HDL-C median percent change, AMR101 4 g/day vs. Placebo ([1]; 4 g/day vs placebo, 12 weeks): −17.7%
- TC median percent change, AMR101 4 g/day vs. Placebo ([1]; 4 g/day vs placebo, 12 weeks): −16.3%
- TG median percent change, AMR101 4 g/day vs. Placebo ([1]; 4 g/day vs placebo, 12 weeks): −33.1%
- VLDL-C median percent change, AMR101 4 g/day vs. Placebo ([1]; 4 g/day vs placebo, 12 weeks): −28.6%
- VLDL-TG median percent change, AMR101 4 g/day vs. Placebo ([1]; 4 g/day vs placebo, 12 weeks): −25.8%
- Apo B median percent change from baseline ([1]; 4 g/day, 12 weeks): −3.8%
- HDL-C median percent change from baseline ([1]; 4 g/day, 12 weeks): −3.5%
- LDL-C median percent change from baseline ([1]; 4 g/day, 12 weeks): −4.5%
- Lp-PLA2 median percent change from baseline ([1]; 4 g/day, 12 weeks): −17.1%
- Non-HDL-C median percent change from baseline ([1]; 4 g/day, 12 weeks): −7.7%
- TC median percent change from baseline ([1]; 4 g/day, 12 weeks): −7.3%
- TG median percent change from baseline ([1]; 4 g/day, 12 weeks): −26.6%
- VLDL-C median percent change from baseline ([1]; 4 g/day, 12 weeks): −19.5%
- VLDL-TG median percent change from baseline ([1]; 4 g/day, 12 weeks): −25.2%
- Reduction of median apolipoprotein B compared with placebo ([1]; 4 g/day, previously reported, stated as reduction): 8.5%
- VLDL particle size, placebo-adjusted median percent change from baseline ([2]; 2 g/day vs placebo): −4.0%
- HDL particle size, median change from baseline ([2]; 2 g/day, n = 63): 0.0%
- LDL particle size, median change from baseline ([2]; 2 g/day, n = 63): 0.0%
- VLDL particle size, median change from baseline ([2]; 2 g/day, n = 63): −3.4%
- HDL particle size, end-of-treatment value (median) ([2]; 2 g/day, n = 63): 8.9 nm
- LDL particle size, end-of-treatment value (median) ([2]; 2 g/day, n = 63): 19.6 nm
- VLDL particle size, end-of-treatment value (median) ([2]; 2 g/day, n = 63): 60.6 nm
- VLDL particle size, placebo-adjusted median percent change from baseline ([2]; 4 g/day vs placebo): −8.6%
- LDL particle size, median change from baseline ([2]; 4 g/day, n = 60): 0.0%
- LDL particle size, end-of-treatment value (median) ([2]; 4 g/day, n = 60): 19.7 nm
- HDL particle size, median change from baseline ([2]; 4 g/day, n = 61): 1.1%
- VLDL particle size, median change from baseline ([2]; 4 g/day, n = 61): −8.6%
- HDL particle size, end-of-treatment value (median) ([2]; 4 g/day, n = 61): 8.9 nm
- VLDL particle size, end-of-treatment value (median) ([2]; 4 g/day, n = 61): 55.7 nm
- Small LDL particle concentration, placebo-adjusted median percent change from baseline ([3]; Hodges-Lehmann median): −12.8%
- Total HDL particle concentration, placebo-adjusted median percent change from baseline ([3]; Hodges-Lehmann median): −3.0%
- Total LDL particle concentration, placebo-adjusted median percent change from baseline ([3]; Hodges-Lehmann median): −1.1%
- Reduction of small LDL particle concentration ([3]; stated as reduction): 12.8%

Source: patent publication US11291643B2, “Methods of treating hypertriglyceridemia” (Amarin Pharmaceuticals Ireland Limited, priority 2011, dated 2022)
